The test deals with Human Umbilical Vein Endothelial cells (VEGF-stimulated). The test is described as follows: HUVEC proliferation assay, VEGF-stimulated. The test is classed as cell-based. The settings on record: VEGF 50 ng/mL, 72 h, CyQuant, read-out: inhibited VEGF-stimulated HUVEC proliferation at a level. The procedure, abridged: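 Pooled-donor HUVECs (passage 2–3) seeded in DMEM+10% FBS for 22 h, then pre-treated 2–3 h with five-point, five-fold compound dilutions (0.25% DMSO final). Stimulated with 50 ng/mL VEGF (bFGF 20 ng/mL on separate plates) for 72 h at 37 °C. CyQuant fluorescence (485/530 nm) after freeze-thaw; IC50 from 4-parameter fit.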

pIC50: −log10 of the molar value. Where only a bound is given, the exact number is not on record here.

For the molecule `CNc1nccc(CNc2ncccc2C(=O)Nc2ccc3c(c2)N(C(C)=O)CC3(C)C)n1` [Example 1045, N-(1-acetyl-3,3-dimethyl-2,3-dihydro-1H-indol-6-yl)-2-(((2-(methylamino)-4-pyrimidinyl)methyl)amino)-3-pyridinecarboxamide], the pIC50 is greater than 7.30.

Consider `CC1(C)CCNc2cc(NC(=O)c3cccnc3NCc3ccnc(N)c3)ccc21` [Example 1111, 2-[(2-Amino-pyridin-4-ylmethyl)-amino]-N-(4,4-dimethyl-1,2,3,4-tetrahydro-quinolin-7-yl)-nicotinamide], for which the pIC50 is greater than 7.30.

`CN1CCC(CCCOc2cc(CNc3ncccc3C(=O)Nc3ccc(C(C)(C)C)cc3)ccn2)CC1` [Example 924, 2-({2-[3-(1-Methyl-piperidin-4-yl)-propoxy]-pyridin-4-ylmethyl}-amino)-N-(4-tert-butyl-phenyl)-nicotinamide]: the pIC50 was greater than 7.30.

With `CN1CCC(C(C)(C)c2ccc(NC(=O)c3cccnc3NCc3ccnc4ccccc34)cc2)CC1` [Example 1028, N-(4-(1-Methyl-1-(1-methyl-4-piperidinyl)ethyl)phenyl)-2-((4-quinolinylmethyl)amino)-3-pyridinecarboxamide], the pIC50 is greater than 7.30.

`COc1nccc(CNc2ncccc2C(=O)Nc2ccc3c(c2)CNCC3(C)C)n1` [Example 1132, N-(4,4-Dimethyl-1,2,3,4-tetrahydro-isoquinolin-7-yl)-2-[(2-methoxy-pyrimidin-4-ylmethyl)-amino]-nicotinamide]: the pIC50 is greater than 7.30.

`CNc1cc(CNc2ncccc2C(=O)Nc2ccc3c(c2)CNCC3(C)C)ccn1` [Example 1130, N-(4,4-Dimethyl-1,2,3,4-tetrahydro-isoquinolin-7-yl)-2-[(2-methylamino-pyridin-4-ylmethyl)-amino]-nicotinamide]: the pIC50 was greater than 7.30.

Regarding `CNc1nccc(CNc2ncccc2C(=O)Nc2ccc3c(c2)N(S(C)(=O)=O)CC3(C)C)n1` [Example 1060, N-(3,3-dimethyl-1-(methylsulfonyl)-2,3-dihydro-1H-indol-6-yl)-2-(((2-(methylamino)-4-pyrimidinyl)methyl)amino)-3-pyridinecarboxamide], the pIC50 was greater than 7.30.

In the case of `CCN1CCC(C)(C)c2ccc(NC(=O)c3cccnc3NCc3ccncc3)cc21` [Example 1124, N-(1-Ethyl-4,4-dimethyl-1,2,3,4-tetrahydro-quinolin-7-yl)-2-[(pyridin-4-ylmethyl)-amino]-nicotinamide], the pIC50 is greater than 7.30.

With `CNc1cc(CNc2ncccc2C(=O)Nc2cc(Cl)cc(NC(=O)CN(C)C)c2)ccn1` [Example 1149, N-[3-Chloro-5-(2-dimethylamino-acetylamino)-phenyl]-2-[(2-methylamino-pyridin-4-ylmethyl)-amino]-nicotinamide], the pIC50 is greater than 7.30.

As to `CC(CNc1cc(CNc2ncccc2C(=O)Nc2ccc3c(c2)NCC3(C)C)ccn1)N1CCOCC1` (centres unmarked) [Example 1008, N-(3,3-dimethyl-2,3-dihydro-1H-indol-6-yl)-2-{[2-(2-morpholin-4-yl-propylamino)-pyridin-4-ylmethyl]-amino}-nicotinamide], the pIC50 is greater than 7.30.

Regarding `O=C(Nc1cccc(C(OC[C@@H]2CCCN2)(C(F)(F)F)C(F)(F)F)c1)c1cccnc1NCc1ccncc1` [Example 1138, 2-[(Pyridin-4-ylmethyl)-amino]-N-{3-[2,2,2-trifluoro-1-(pyrrolidin-2-ylmethoxy)-1-trifluoromethyl-ethyl]-phenyl}-nicotinamide], the pIC50 was greater than 7.30.

Regarding `O=C(Nc1ccc(Cl)c(Cl)c1)c1cccnc1NCc1ccncc1` [Example 4, N-(3,4-Dichlorophenyl){2-[(4-pyridylmethyl)amino](3-pyridyl)}-carboxamide], the pIC50 is greater than 7.30.

`CNc1nccc(CNc2ncccc2C(=O)Nc2cc(NS(C)(=O)=O)cc(C(F)(F)F)c2)n1` [Example 1093, 2-(((2-(methylamino)-4-pyrimidinyl)methyl)amino)-N-(3-((methylsulfonyl)amino)-5-(trifluoromethyl)phenyl)-3-pyridinecarboxamide]: the pIC50 was greater than 7.30.

For the molecule `O=C(Nc1cccc(C(F)(F)F)c1)c1cccnc1NCc1ccc2c(c1)CCO2` [Example 827, {2-[(2,3-Dihydrobenzo[b]furan-5-ylmethyl)amino](3-pyridyl)}-N-[3-(trifluoromethyl)phenyl]carboxamide], the pIC50 was greater than 7.30.

In the case of `CC(C)N1CCC[C@H]1COc1cc(NC(=O)c2cccnc2NCc2ccncc2)cc(C(F)(F)F)c1` [Example 1096, N-(3-((((2S)-1-(1-methylethyl)-2-pyrrolidinyl)methyl)oxy)-5-(trifluoromethyl)phenyl)-2-((4-pyridinylmethyl)amino)-3-pyridinecarboxamide], the pIC50 is greater than 7.30.

Take `CN1CCC(CCCOc2cc(CNc3ncccc3C(=O)Nc3cccc(C(F)(F)F)c3)ccn2)CC1` [Example 923, 2-({2-[3-(1-Methyl-piperidin-4-yl)-propoxy]-pyridin-4-ylmethyl}-amino)-N-(3-trifluoromethyl-phenyl)-nicotinamide]: the pIC50 was greater than 7.30.

Turning to `CC1(C)CCNc2cc(NC(=O)c3cccnc3NCc3ccnc(N4CCOCC4)c3)ccc21` [Example 1154, N-(4,4-Dimethyl-1,2,3,4-tetrahydro-quinolin-7-yl)-2-[(2-morpholin-4-yl-pyridin-4-ylmethyl)-amino]-nicotinamide], the pIC50 was greater than 7.30.

In the case of `O=C(Nc1ccc(Cl)cc1)c1cccnc1NCc1ccnc2ccccc12` [Example 20, N-(4-Chlorophenyl){2-[(4-quinolylmethyl)amino](3-pyridyl)}carboxamide], the pIC50 was greater than 7.30.

As for `O=C(Nc1ccc(Oc2ccccc2)cc1)c1cccnc1NCc1ccncc1` [Example 158, N-(4-Phenoxyphenyl){2-[(4-pyridylmethyl)amino](3-pyridyl)}carboxamide], the pIC50 was greater than 7.30.

For `CC(C)(C)c1ccc(NC(=O)c2cccnc2NCc2ccc3c(c2)CCO3)cc1` [Example 826, N-[4-(tert-Butyl)phenyl]{2-[(2,3-dihydrobenzo[b]furan-5-ylmethyl)amino](3-pyridyl)}carboxamide], the pIC50 is greater than 7.30.

For `CC1(C)CNCc2cc(NC(=O)c3cccnc3NCc3ccnc(N)c3)ccc21` [Example 1168, 2-(((2-Amino-4-pyridinyl)methyl)amino)-N-(4,4-dimethyl-1,2,3,4-tetrahydro-7-isoquinolinyl)-3-pyridinecarboxamide], the pIC50 was greater than 7.30.

`CNc1cc(CNc2ncccc2C(=O)Nc2cc(OC[C@@H]3CCCO3)cc(C(F)(F)F)c2)ccn1` [Example 1080, 2-(((2-(methylamino)-4-pyridinyl)methyl)amino)-N-(3-(((2S)-tetrahydro-2-furanylmethyl)oxy)-5-(trifluoromethyl)phenyl)-3-pyridinecarboxamide]: the pIC50 was greater than 7.30.

`CNc1cc(CNc2ncccc2C(=O)Nc2ccc3c(c2)NC(=O)CC3(C)C)ccn1` [Example 1119, N-(4,4-Dimethyl-2-oxo-1,2,3,4-tetrahydro-quinolin-7-yl)-2-[(2-methylamino-pyridin-4-ylmethyl)-amino]-nicotinamide]: the pIC50 was greater than 7.30.

As to `CC(C)c1ccc(NC(=O)c2cccnc2NCc2ccc3ocnc3c2)cc1` [Example 1120, 2-((1,3-Benzoxazol-5-ylmethyl)amino)-N-(4-(1-methylethyl)phenyl)-3-pyridinecarboxamide], the pIC50 was greater than 7.30.

Take `O=C(Nc1cc(OCC2CNC2)cc(C(F)(F)F)c1)c1cccnc1NCc1ccncc1` [Example 977, N-[3-(azetidin-3-ylmethoxy)-5-trifluoromethyl-phenyl]-2-[(pyridin-4-ylmethyl)-amino]-nicotinamide]: the pIC50 is greater than 7.30.

For `COc1cc(CNc2ncccc2C(=O)Nc2ccc(C(C)C)cc2)ccn1` [Example 140, (2-{[(2-Methoxy(4-pyridyl))methyl]amino}(3-pyridyl))-N-[4-(methylethyl)phenyl]carboxamide], the pIC50 is greater than 7.30.

On to `CNc1nccc(CNc2ncccc2C(=O)Nc2cc(NC(=O)O[C@H]3CCOC3)cc(C(F)(F)F)c2)n1` [Example 1089, (3S)-tetrahydro-3-furanyl 3-(((2-(((2-(methylamino)-4-pyrimidinyl)methyl)amino)-3-pyridinyl)carbonyl)amino)-5-(trifluoromethyl)phenylcarbamate], for which the pIC50 was greater than 7.30.

`CNc1nccc(CNc2ncccc2C(=O)Nc2cc(OCCNS(C)(=O)=O)cc(C(F)(F)F)c2)n1` [Example 1091, 2-(((2-(methylamino)-4-pyrimidinyl)methyl)amino)-N-(3-((2-((methylsulfonyl)amino)ethyl)oxy)-5-(trifluoromethyl)phenyl)-3-pyridinecarboxamide]: the pIC50 was greater than 7.30.

Regarding `CC(=O)N1CC(C)(C)Oc2ccc(NC(=O)c3cccnc3NCc3ccncc3)cc21` [Example 943, N-(4-Acetyl-2,2-dimethyl-3,4-dihydro-2H-benzo[1,4]oxazin-6-yl)-2-[(pyridin-4-ylmethyl)-amino]-nicotinamide], the pIC50 is greater than 7.30.

On to `CNc1nccc(CNc2ncccc2C(=O)Nc2ccc3c(c2)N(C(=O)CN(C)C)CC3(C)C)n1` [Example 1039, N-(1-(N,N-Dimethylglycyl)-3,3-dimethyl-2,3-dihydro-1H-indol-6-yl)-2-(((2-(methylamino)-4-pyrimidinyl)methyl)amino)-3-pyridinecarboxamide], for which the pIC50 was greater than 7.30.

Turning to `CC(C)c1ccc(NC(=O)c2cccnc2NCc2ccncc2)cc1` [Example 25, N-(4-Isopropylphenyl){2-[(4-pyridylmethyl)amino](3-pyridyl)}carboxamide], the pIC50 is greater than 7.30.

Consider `CC1(C)CN(S(C)(=O)=O)c2cc(NC(=O)c3cccnc3NCc3ccncc3)ccc21` [Example 1068, N-(3,3-dimethyl-1-(methylsulfonyl)-2,3-dihydro-1H-indol-6-yl)-2-((4-pyridinylmethyl)amino)-3-pyridinecarboxamide], for which the pIC50 was greater than 7.30.

The values above are taken from patent publication US7687643B2, “Process for preparing 3,3-dimethylindolines” (Amgen Inc., priority 2001, dated 2010).
